# From patent publication US20240059695A1, “SUBSTITUTED IMIDAZO[1,5-b]PYRIDAZINE COMPOUNDS AS KINASE INHIBITORS AND USE THEREOF” (IMPACT THERAPEUTICS (SHANGHAI), INC, priority 2020, published 2024)
# Experiments:
# [1] = system: human lung cancer NCI-H460 cell; assay: MTT proliferation assay, NCI-H460; assay type: cell-based; conditions: NCI-H460, 96 h, MTT, 4 days, read-out: IC50 (nM), proliferation of NCI-H460 cell
# Method: The cells were digested by trypsinase and centrifuged at 800 rpm for 5 minutes, the supernatant was discarded, and the residual was resuspended with fresh medium […]) and counted.
# The cells were seeded into 96-well cell culture plate with a density of 2000/4000 cells per well and incubated overnight in a 5% CO2 incubator at 37° C. […] 5 μL diluent of each concentration was added to 120 μL of medium (25 times diluted) and mixed by shaking. The overnight cell plates were taken and the culture medium was removed, 195 μL of fresh medium was added to each well, and 5 μL of diluted medium containing the corresponding concentration of the test compound was added respectively (the final concentration of DMSO is 1%), and the culture plate was then placed in a 5% CO2 incubator at 37° C. for 4 days. After removing the original solution, 100 μL of fresh serum-free DMEM medium containing MTT (0.5 mg/mL) was added to each well, the culture was continued. […] Cell viability (%)=(ODcompound−ODbackground)/(ODDMSO−ODbackground)×100. GraphPad Prism 6.0 was used to analyze the data. The inhibitory activity of compounds on cell proliferation was plotted based on cell viability and the logarithm of compound concentration. The IC50 value was fitted by a sigmoidal dose response curve equation […], wherein C was the concentration of compound.
# [2] = system: human ovarian cancer OVCAR-3 cell; assay: Synergistic inhibition of Example 1 in combination with senaparib, MTT assay; assay type: cell-based; conditions: for Combination Index (CI): OVCAR-3, 3 days
# Method: The cells were digested by trypsinase and centrifuged at 800 rpm for 5 minutes, the supernatant was discarded, and the residual was resuspended with fresh medium (1640 medium+10% FBS) and counted. The cells were seeded into 96-well cell culture plate with an appropriate density and incubated overnight in a 5% CO2 incubator at 37° C. The stock solutions of the test substances were serially diluted to 4-5 concentrations by DMSO at the ratios of 1:3, respectively. 5 µL diluent of each concentration was added to 120 μL of medium (25 times diluted) and mixed by shaking. The overnight cell plates were taken and the culture medium was removed, […] of fresh medium was added to each well, and 5 μL of diluted compound or 5 μL of medium containing DMSO was added respectively (the final concentration of DMSO is 1%), and the culture plate was then placed in a 5% CO2 incubator at 37° C. for 3 days. After removing the original solution, 100 μL of fresh serum-free DMEM medium containing MTT (0.5 mg/mL) was added to each well, the culture was continued. After 4 hours, the original solution was removed, 100 μL of DMSO was added to each well, the 96-well plates were shaken for 10 minutes in the dark and placed in a multi-function reader to read the absorbance at the wavelength of 552/690 nm. Cell viability (%)=(ODcompound−ODbackground)/(ODDMSO−ODbackground)×100. The combination index (CI) was calculated with the software CalcuSyn.
structure (smiles),measurement,setting,value
"Cc1nc(-c2ccn[nH]2)n2nc(N3CCOC[C@H]3C)cc(-c3ccnn3C)c12 [Example 1, (R)-3-methyl-4-(5-methyl-4-(1-methyl-1H-pyrazol-5-yl)-7-(1H-pyrazol-5-yl)imidazo[1,5-b]pyridazin-2-yl)morpholine]",IC50,[1],16.5 nM
same,Combination Index (CI),[2]; 11 nM Example 1 + 37 nM senaparib,1.157
same,Combination Index (CI),[2]; 11 nM Example 1 + 111 nM senaparib,0.215
same,Combination Index (CI),[2]; 11 nM Example 1 + 333 nM senaparib,0.069
same,Combination Index (CI),[2]; 11 nM Example 1 + 1000 nM senaparib,0.052
same,Combination Index (CI),[2]; 11 nM Example 1 + 3000 nM senaparib,0.044
same,Combination Index (CI),[2]; 33 nM Example 1 + 37 nM senaparib,0.275
same,Combination Index (CI),[2]; 33 nM Example 1 + 111 nM senaparib,0.213
same,Combination Index (CI),[2]; 33 nM Example 1 + 333 nM senaparib,0.18
same,Combination Index (CI),[2]; 33 nM Example 1 + 1000 nM senaparib,0.148
same,Combination Index (CI),[2]; 33 nM Example 1 + 3000 nM senaparib,0.12
same,Combination Index (CI),[2]; 100 nM Example 1 + 37 nM senaparib,0.603
same,Combination Index (CI),[2]; 100 nM Example 1 + 111 nM senaparib,0.544
same,Combination Index (CI),[2]; 100 nM Example 1 + 333 nM senaparib,0.488
same,Combination Index (CI),[2]; 100 nM Example 1 + 1000 nM senaparib,0.424
same,Combination Index (CI),[2]; 100 nM Example 1 + 3000 nM senaparib,0.364
same,Combination Index (CI),[2]; 300 nM Example 1 + 37 nM senaparib,1.588
same,Combination Index (CI),[2]; 300 nM Example 1 + 111 nM senaparib,1.471
same,Combination Index (CI),[2]; 300 nM Example 1 + 333 nM senaparib,1.377
same,Combination Index (CI),[2]; 300 nM Example 1 + 1000 nM senaparib,1.276
same,Combination Index (CI),[2]; 300 nM Example 1 + 3000 nM senaparib,1.195
same,synergistic effect on inhibiting the proliferation of OVCAR-3 cells (in words),[2]; combination of Example 1 and senaparib,good synergistic effect
